Data as given in patent publication US20180153168A1, “A PRIMER FOR PESTICIDES” (PANGAEA AGROCHEMICALS LIMITED, priority 2015, published 2018).
Read-outs that look alike come from different tables or passages of the source.

What was measured:
[1] = tested on: glyphosate resistant strain of Italian ryegrass; assay: Control of glyphosate resistant Italian ryegrass, piperonyl butoxide pre-treatment then glyphosate (Western Australia); format: in vivo; conditions: glyphosate without piperonyl butoxide; 8 replicated trials; FIG. 1
[2] = tested on: clodinafop resistant strains of blackgrass
Procedure: Further experiments were carried out using clodinafop resistant strains of blackgrass.
Daytime temperature of 11° C. Night time temperature of 8° C.

plant crop = conditions: optimised dose rate
Procedure: Preferably, the time delay is from 1 to 24 hours, preferably from 2 to 8 hours. However, the time delay required varies with temperature and dose rate. […] (these time delays assume an optimised dose rate).

pollen beetle = conditions: with insecticides
white fly = conditions: with insecticides
plants = conditions: applied alone, in the absence of any active ingredients; cited from earlier work
[3] = piperonyl butoxide 320 grams per ha then clodinafop 250 g ai/ha, daytime 11° C., night 8° C., FIG. 9

| SMILES | level of control [1] | optimum delay ([2]; early autumn trials, ambient temperature of the order of 18° C.) [h] | delays showing high levels of control [2, 3] [h] | optimum delay for efficacy [2, 3] | optimum time delay (plant crop; 11° C.) [h] | optimum time delay (plant crop; 15° C.) [h] | optimum time delay (plant crop; 25° C.) [h] | optimum delay for application (pollen beetle) | optimum delay for application (white fly) [h] | toxicity to plants (plants) |
| --- | --- | --- | --- | --- | --- | --- | --- | --- | --- | --- |
| O=C(O)CNCP(=O)(O)O [glyphosate] | minimal |  |  |  |  |  |  |  |  |  |
| CCCCOCCOCCOCc1cc2c(cc1CCC)OCO2 [piperonyl butoxide] |  | 2 to 8 | 8 to 16 | approximately 8 hours | 8 | 4 | 2.5 | approximately 1 hour | ~8 | not detectable |
